In patent US11332459B2 (TEIJIN PHARMA LIMITED, priority 2017, dated 2022):

What follows are molecules tested against T1, human TRPC6 (Homo sapiens, UniProt Q9Y210) (assay: TRPC6 calcium flux assay (FLIPR, OAG-stimulated calcium influx)). Settings: HEK293 cells stably transfected with human TRPC6, read-out: hTRPC6 Potency.
T1 construct: expressed in transfected cells
T1 sequence (Q9Y210 1-931): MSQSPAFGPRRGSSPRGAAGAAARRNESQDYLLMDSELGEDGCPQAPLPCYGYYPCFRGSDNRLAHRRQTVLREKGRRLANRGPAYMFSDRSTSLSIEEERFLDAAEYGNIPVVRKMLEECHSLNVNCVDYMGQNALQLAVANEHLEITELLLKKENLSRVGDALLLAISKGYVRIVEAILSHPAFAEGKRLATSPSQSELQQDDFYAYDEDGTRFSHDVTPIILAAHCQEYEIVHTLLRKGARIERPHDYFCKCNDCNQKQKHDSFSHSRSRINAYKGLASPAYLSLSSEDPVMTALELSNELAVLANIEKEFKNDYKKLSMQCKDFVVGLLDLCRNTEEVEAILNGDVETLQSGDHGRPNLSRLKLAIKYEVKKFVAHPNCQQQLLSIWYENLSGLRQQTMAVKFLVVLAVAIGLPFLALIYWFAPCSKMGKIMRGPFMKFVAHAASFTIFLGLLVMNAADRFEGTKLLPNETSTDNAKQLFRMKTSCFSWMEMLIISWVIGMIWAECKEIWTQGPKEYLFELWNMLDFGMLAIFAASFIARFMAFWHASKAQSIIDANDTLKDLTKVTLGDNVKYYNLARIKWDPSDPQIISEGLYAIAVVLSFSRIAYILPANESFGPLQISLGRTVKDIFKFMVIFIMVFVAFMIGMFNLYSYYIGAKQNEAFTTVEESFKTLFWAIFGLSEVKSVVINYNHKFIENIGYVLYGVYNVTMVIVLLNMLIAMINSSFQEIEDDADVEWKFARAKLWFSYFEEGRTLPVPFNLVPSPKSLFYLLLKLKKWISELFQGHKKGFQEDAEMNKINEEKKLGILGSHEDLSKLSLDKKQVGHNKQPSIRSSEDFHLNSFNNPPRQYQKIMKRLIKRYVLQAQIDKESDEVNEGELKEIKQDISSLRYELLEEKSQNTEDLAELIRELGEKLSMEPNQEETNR
Assay type: cell-based
How it was run: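 HEK293 cells stably expressing human TRPC6, loaded with calcium dye 90–120 min at RT, then given compound for 25 min before OAG (50 uM final, 0.5% DMSO) in HEPES buffer pH 7.2 with 2 mM CaCl2. Background-subtracted FLIPR peak over 180 s normalized to OAG vs buffer; IC50 from dose plot.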

SMILES | IC50
N[C@@H]1CN(c2nc3cc(F)c(F)cc3n2Cc2ccc(F)cc2F)CC[C@H]1F [Example 351, (3R,4R)-1-(1-(2,4-difluorobenzyl)-5,6-difluoro-1H-benzimidazol-2-yl)-4-fluoro-3-piperidinamine] | 10.3 nM
N[C@@H]1CN(c2nc3cc(F)c(F)cc3n2Cc2ccccc2C(F)(F)F)CC[C@H]1F [Example 352, (3R,4R)-1-(5,6-difluoro-1-(2-(trifluoromethyl)benzyl)-1H-benzimidazol-2-yl)-4-fluoro-3-piperidinamine] | 328 nM
N#Cc1ccccc1Cn1c(N2CC[C@@H](F)[C@H](N)C2)nc2cc(F)c(F)cc21 [Example 353, 2-((2-((3R,4R)-3-amino-4-fluoro-1-piperidinyl)-5,6-difluoro-1H-benzimidazol-1-yl)methyl)benzonitrile] | 30.8 nM
N[C@@H]1CN(c2nc3cc(F)c(F)cc3n2Cc2ccccc2Cl)CC[C@H]1F [Example 354, (3R,4R)-1-(1-(2-chlorobenzyl)-5,6-difluoro-1H-benzimidazol-2-yl)-4-fluoro-3-piperidinamine] | 133 nM
N[C@@H]1CN(c2nc3cc(F)c(F)cc3n2Cc2ccc(F)cc2Cl)CC[C@H]1F [Example 355, (3R,4R)-1-(1-(2-chloro-4-fluorobenzyl)-5,6-difluoro-1H-benzimidazol-2-yl)-4-fluoro-3-piperidinamine] | 37 nM
N[C@@H]1CN(c2nc3cc(F)c(F)cc3n2Cc2ccc(F)cc2C(F)(F)F)CC[C@H]1F [Example 356, (3R,4R)-1-(5,6-difluoro-1-(4-fluoro-2-(trifluoromethyl)benzyl)-1H-benzimidazol-2-yl)-4-fluoro-3-piperidinamine] | 239 nM
N[C@@H]1CN(c2nc3cc(F)c(F)cc3n2Cc2ccc(F)c(F)c2)CC[C@H]1F [Example 357, (3R,4R)-1-(1-(3,4-difluorobenzyl)-5,6-difluoro-1H-benzimidazol-2-yl)-4-fluoro-3-piperidinamine] | 24.5 nM
N[C@@H]1CN(c2nc3cc(F)c(F)cc3n2Cc2ccc(Cl)cc2F)CC[C@H]1F [Example 358, (3R,4R)-1-(1-(4-chloro-2-fluorobenzyl)-5,6-difluoro-1H-benzimidazol-2-yl)-4-fluoro-3-piperidinamine] | 6.47 nM
N[C@@H]1CN(c2nc3cc(F)c(F)cc3n2Cc2ccc(Cl)c(Cl)c2)CC[C@H]1F [Example 359, (3R,4R)-1-(1-(3,4-dichlorobenzyl)-5,6-difluoro-1H-benzimidazol-2-yl)-4-fluoro-3-piperidinamine] | 238 nM
N[C@@H]1CN(c2nc3cc(F)c(F)cc3n2Cc2ccc(Cl)c(F)c2)CC[C@H]1F [Example 360, (3R,4R)-1-(1-(4-chloro-3-fluorobenzyl)-5,6-difluoro-1H-benzimidazol-2-yl)-4-fluoro-3-piperidinamine] | 42.9 nM
N[C@@H]1CN(c2nc3cc(F)c(F)cc3n2Cc2ccc(C(F)(F)F)cc2)CC[C@H]1F [Example 361, (3R,4R)-1-(5,6-difluoro-1-(4-(trifluoromethyl)benzyl)-1H-benzimidazol-2-yl)-4-fluoro-3-piperidinamine] | 66.8 nM
N[C@@H]1CN(c2nc3cc(F)c(F)cc3n2Cc2ccc(OC(F)(F)F)cc2)CC[C@H]1F [Example 362, (3R,4R)-1-(5,6-difluoro-1-(4-(trifluoromethoxy)benzyl)-1H-benzimidazol-2-yl)-4-fluoro-3-piperidinamine] | 256 nM
N[C@@H]1CN(c2nc3cc(F)c(F)cc3n2Cc2ccc(C(F)F)cc2)CC[C@H]1F [Example 363, (3R,4R)-1-(1-(4-(difluoromethyl)benzyl)-5,6-difluoro-1H-benzimidazol-2-yl)-4-fluoro-3-piperidinamine] | 31.3 nM
N[C@@H]1CN(c2nc3cc(F)c(F)cc3n2Cc2cccc(OC(F)(F)F)c2)CC[C@H]1F [Example 364, (3R,4R)-1-(5,6-difluoro-1-(3-(trifluoromethoxy)benzyl)-1H-benzimidazol-2-yl)-4-fluoro-3-piperidinamine] | 1020 nM
N[C@@H]1CN(c2nc3cc(F)c(F)cc3n2Cc2cccc(C(F)(F)F)c2)CC[C@H]1F [Example 365, (3R,4R)-1-(5,6-difluoro-1-(3-(trifluoromethyl)benzyl)-1H-benzimidazol-2-yl)-4-fluoro-3-piperidinamine] | 2960 nM
N#Cc1cccc(Cn2c(N3CC[C@@H](F)[C@H](N)C3)nc3cc(F)c(F)cc32)c1 [Example 366, 3-((2-((3R,4R)-3-amino-4-fluoro-1-piperidinyl)-5,6-difluoro-1H-benzimidazol-1-yl)methyl)benzonitrile] | 232 nM
N[C@@H]1CN(c2nc3cc(F)c(F)cc3n2Cc2cccc(Cl)c2)CC[C@H]1F [Example 367, (3R,4R)-1-(1-(3-chlorobenzyl)-5,6-difluoro-1H-benzimidazol-2-yl)-4-fluoro-3-piperidinamine] | 354 nM
N[C@H]1CCCN(c2nc3ccccc3n2Cc2ccc(F)cc2)C1 [Example 368, (S)-1-(1-(4-fluorobenzyl)-1H-benzo[d]imidazol-2-yl)piperidin-3-amine] | 99.2 nM
N[C@H]1CCCN(c2nc3ccccc3n2Cc2ccc(-c3ncon3)cc2)C1 [Example 369, (S)-1-(1-(4-(1,2,4-oxadiazol-3-yl)benzyl)-1H-benzo[d]imidazol-2-yl)piperidin-3-amine] | 8.65 nM
CS(=O)(=O)c1ccc(Cn2c(N3CCC[C@@H](N)C3)nc3ccccc32)cc1 [Example 370, (R)-1-(1-(4-(methylsulfonyl)benzyl)-1H-benzo[d]imidazol-2-yl)piperidin-3-amine] | > 50000 nM

The next lines start with the values.

IC50 | SMILES
6830 nM | N[C@@H]1CCCN(c2nc3ccccc3n2Cc2ccc(-n3cncn3)cc2)C1 [Example 371, (R)-1-(1-(4-(1H-1,2,4-triazol-1-yl)benzyl)-1H-benzo[d]imidazol-2-yl)piperidin-3-amine]
14100 nM | N#Cc1ccccc1Cn1c(N2CCC[C@@H](N)C2)nc2ccccc21 [Example 372, (R)-2-((2-(3-aminopiperidin-1-yl)-1H-benzo[d]imidazol-1-yl)methyl)benzonitrile]
5850 nM | N[C@@H]1CCCN(c2nc3ccccc3n2Cc2c(Cl)cccc2Cl)C1 [Example 373, (R)-1-(1-(2,6-dichlorobenzyl)-1H-benzo[d]imidazol-2-yl)piperidin-3-amine]
3410 nM | N[C@@H]1CCCN(c2nc3ccccc3n2Cc2ccccc2Cl)C1 [Example 374, (R)-1-(1-(2-chlorobenzyl)-1H-benzo[d]imidazol-2-yl)piperidin-3-amine]
2770 nM | N[C@@H]1CCCN(c2nc3ccccc3n2Cc2ccc(C(F)(F)F)cc2)C1 [Example 375, (R)-1-(1-(4-(trifluoromethyl)benzyl)-1H-benzo[d]imidazol-2-yl)piperidin-3-amine]
3050 nM | N[C@@H]1CCCN(c2nc3ccccc3n2Cc2ccc(OC(F)(F)F)cc2)C1 [Example 376, (R)-1-(1-(4-(trifluoromethoxy)benzyl)-1H-benzo[d]imidazol-2-yl)piperidin-3-amine]
1650 nM | N[C@@H]1CCCN(c2nc3ccccc3n2Cc2ccc(Cl)cc2)C1 [Example 377, (R)-1-(1-(4-chlorobenzyl)-1H-benzo[d]imidazol-2-yl)piperidin-3-amine]
3080 nM | N[C@@H]1CCCN(c2nc3ccccc3n2Cc2cccc(Cl)c2)C1 [Example 378, (R)-1-(1-(3-chlorobenzyl)-1H-benzo[d]imidazol-2-yl)piperidin-3-amine]
4440 nM | CC(F)(F)c1ccc(Cn2c(N3CCC[C@@H](N)C3)nc3ccccc32)cc1 [Example 379, (R)-1-(1-(4-(1,1-difluoroethyl)benzyl)-1H-benzo[d]imidazol-2-yl)piperidin-3-amine]
17000 nM | CC(C)(C#N)c1ccc(Cn2c(N3CCC[C@@H](N)C3)nc3ccccc32)cc1 [Example 380, (R)-2-(4-((2-(3-aminopiperidin-1-yl)-1H-benzo[d]imidazol-1-yl)methyl)phenyl)-2-methylpropanenitrile]
5680 nM | N[C@@H]1CCCN(c2nc3ccccc3n2Cc2ccc(C(F)F)cc2)C1 [Example 381, (R)-1-(1-(4-(difluoromethyl)benzyl)-1H-benzo[d]imidazol-2-yl)piperidin-3-amine]
> 50000 nM | CNC(=O)c1ccc(Cn2c(N3CCC[C@@H](N)C3)nc3ccccc32)cc1 [Example 382, (R)-4-((2-(3-aminopiperidin-1-yl)-1H-benzo[d]imidazol-1-yl)methyl)-N-methylbenzamide]
319 nM | N#Cc1ccc(Cn2c(N3CCC[C@@H](N)C3)nc3ccccc32)c(F)c1 [Example 383, (R)-4-((2-(3-aminopiperidin-1-yl)-1H-benzo[d]imidazol-1-yl)methyl)-3-fluorobenzonitrile]
